Experiment [1] concerns A2780. Put plainly: Cytotoxicity against human A2780 cells assessed as reduction in cell viability incubated for 72 hrs by CCK-8 assay. The experiment is classed as functional, cell-based. As to conditions: A2780, 72 h. (Formazan colour is commonly taken as a measure of viable cells.)
Experiment [2] concerns A2780. Put plainly: Cytotoxicity against human A2780 cells assessed as increase in LDH activity. Type of experiment: functional, cell-based.
The test system of experiment [3] is A2780. Description: Induction of apoptosis in human A2780 cells assessed as caspase3/7 activation. The experiment is classed as functional, cell-based.
Experiment [4] relates to A549. Description: Cytotoxicity against human A549 cells assessed as reduction in cell viability incubated for 24 hrs by MTT assay. As to conditions: A549, 24 h. Type of experiment: functional, cell-based.
Experiment [5] deals with MCF7. Description: Cytotoxicity against human MCF7 cells assessed as reduction in cell viability incubated for 24 hrs by MTT assay. The experiment is classed as functional, cell-based. As to conditions: MCF7, 24 h.
Experiment [6] concerns A549. Description: Cytotoxicity against human A549 cells by MTT assay. Type of experiment: functional, cell-based.
The target in experiment [7] is Epidermal growth factor receptor (Homo sapiens, UniProt P00533). Put plainly: Inhibition of EGFR (unknown origin).
Sequence of Epidermal growth factor receptor (P00533 whole entry): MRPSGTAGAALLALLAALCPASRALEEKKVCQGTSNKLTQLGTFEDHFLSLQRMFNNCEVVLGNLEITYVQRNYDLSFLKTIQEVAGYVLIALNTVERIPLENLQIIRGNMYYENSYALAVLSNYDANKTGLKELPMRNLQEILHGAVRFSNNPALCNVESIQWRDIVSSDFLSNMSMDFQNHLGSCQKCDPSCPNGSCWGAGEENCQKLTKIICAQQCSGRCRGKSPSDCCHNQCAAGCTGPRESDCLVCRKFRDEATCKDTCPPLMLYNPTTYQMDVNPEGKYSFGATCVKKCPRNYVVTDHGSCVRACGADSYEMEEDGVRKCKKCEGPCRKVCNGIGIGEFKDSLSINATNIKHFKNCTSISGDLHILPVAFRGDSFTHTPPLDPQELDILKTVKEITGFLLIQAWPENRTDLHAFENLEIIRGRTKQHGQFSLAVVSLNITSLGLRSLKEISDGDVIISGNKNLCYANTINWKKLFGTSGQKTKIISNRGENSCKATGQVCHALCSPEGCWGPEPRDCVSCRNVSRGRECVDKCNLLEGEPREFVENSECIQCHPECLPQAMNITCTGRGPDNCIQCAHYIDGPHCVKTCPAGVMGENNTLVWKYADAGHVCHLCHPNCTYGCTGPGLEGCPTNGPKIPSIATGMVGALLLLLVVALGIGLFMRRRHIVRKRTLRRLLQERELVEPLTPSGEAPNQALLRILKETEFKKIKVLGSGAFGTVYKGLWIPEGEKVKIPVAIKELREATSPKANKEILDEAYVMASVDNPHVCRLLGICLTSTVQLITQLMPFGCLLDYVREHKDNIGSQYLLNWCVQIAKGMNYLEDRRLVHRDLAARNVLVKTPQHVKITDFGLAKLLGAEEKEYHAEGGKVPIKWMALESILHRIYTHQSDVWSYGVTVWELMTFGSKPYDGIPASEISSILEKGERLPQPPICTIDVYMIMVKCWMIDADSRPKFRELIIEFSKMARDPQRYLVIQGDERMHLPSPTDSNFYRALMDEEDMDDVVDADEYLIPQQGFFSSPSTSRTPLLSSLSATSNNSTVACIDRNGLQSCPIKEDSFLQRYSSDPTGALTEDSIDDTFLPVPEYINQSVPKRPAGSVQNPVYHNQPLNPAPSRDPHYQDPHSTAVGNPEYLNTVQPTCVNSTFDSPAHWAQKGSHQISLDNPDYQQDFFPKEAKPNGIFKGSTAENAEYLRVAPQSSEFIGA
Experiment [8] has as its system A549. Put plainly: Cytotoxicity against human A549 cells assessed as reduction in cell growth. The experiment is classed as functional, cell-based.
In the next experiment the test system is Trypanosoma brucei. Description: Antiparasitic activity against blood stream form Trypanosoma brucei assessed as parasitic growth inhibition at 10 uM by resazurin dye based fluorescence analysis relative to control. Type of experiment: functional. More on the design: scale not given: the % may be the effect or the level left. (Alamar Blue is a resazurin reagent that responds to reducing activity.)

Experiment [9] can be described thus: Inhibition of alpha amylase (unknown origin) using starch as substrate pre-incubated for 30 mins followed by substrate addition and measured after 30 mins by absorbance based analysis. Also noted: species or system Homo sapiens.
Experiment [10] deals with MCF7. Put plainly: Anticancer activity against human MCF7 cells by MTT assay. Type of experiment: functional, cell-based.
Experiment [11] relates to A549. Description: Anticancer activity against human A549 cells by MTT assay. Type of experiment: functional, cell-based.
Experiment [12] concerns COLO 205. Put plainly: Anticancer activity against human COLO 205 cells by MTT assay. The experiment is classed as functional, cell-based.
The subject of experiment [13] is A2780. Put plainly: Anticancer activity against human A2780 cells by MTT assay. The experiment is classed as functional, cell-based.
Experiment [14] concerns MCF7. Put plainly: Cytotoxicity against human MCF7 cells assessed as reduction in cell viability by MTT assay. Type of experiment: functional, cell-based.
The subject of experiment [15] is A549. Put plainly: Cytotoxicity against human A549 cells assessed as reduction in cell viability by MTT assay. Type of experiment: functional, cell-based.
The test system of experiment [16] is COLO 205. Put plainly: Cytotoxicity against human COLO 205 cells assessed as reduction in cell viability by MTT assay. The experiment is classed as functional, cell-based.
Experiment [17] has as its system A2780. Put plainly: Cytotoxicity against human A2780 cells assessed as reduction in cell viability by MTT assay. The experiment is classed as functional, cell-based.

As a reminder, the IC50 is the concentration that inhibits the measured activity by half. With `Nc1nsc(=S)n1[C@H]1CC(=O)[C@@H]2OC[C@H]1O2`, the IC50 with A2780 [1] amounted to 50200 nM; in the experiment with A2780 [2], 23800 nM; with A2780 [3], 15000 nM.

In the case of `O=C(CSc1nnc(Nc2ccccc2)s1)N1N=C(c2ccccc2)CC1c1ccc([N+](=O)[O-])cc1` (stereo not given), the IC50 with A549 [4] is 1540 nM; in the experiment with MCF7 [5], 15900 nM; in the experiment with A549 [6], 48300 nM; in experiment [7], 2 nM; in the experiment with A549 [8], 10000 nM.

With `CNc1nnc(CCCSc2nnc(SCCCc3nnc(NC)s3)s2)s1`, in the experiment on Trypanosoma brucei, the Activity worked out at 65.3%.

`c1ccc(Nc2nnc(CCCSc3nnc(CCCSc4nnc(Nc5ccccc5)s4)s3)s2)cc1`: in the experiment with Trypanosoma brucei, the Activity was 82.6%.

On to `O=C(NC1=NN2C(=O)CN=C2S1)c1cccs1`, for which the 50% inhibitory concentration (IC50) in experiment [9] was determined as 36100 nM.

In the case of `N=c1cc(N)nc2sc(NC(=O)c3cccs3)nn12`, in [9], the IC50 is 36100 nM.

In the case of `O=C1C[C@H](n2ccsc2=S)[C@H]2CO[C@@H]1O2`, the IC50 in the experiment with A2780 [1] came to 47800 nM; in the experiment with A2780 [2] it was 62000 nM; with A2780 [3], 1000 nM; with MCF7 [10], 110 nM.

Regarding `COc1cc(NC(=O)c2ccc(-c3nsc(-c4csc(-c5ccncc5)n4)n3)cc2)cc(OC)c1OC`, the IC50 stood at 110 nM with MCF7 [10]; 110 nM with A549 [11]; 110 nM in the experiment on COLO 205 [12]; 110 nM with A2780 [13]; 340 nM with MCF7 [14]; 110 nM with A549 [15]. Besides, the half-inhibitory concentration (IC50) was found to be 120 nM in the experiment on COLO 205 [16] and 140 nM in the experiment with A2780 [17].

As to `O=C(NC1=NN2C(=O)/C(=C/C3CCCO3)N=C2S1)c1cccs1` (stereo not given), the IC50 in [9] came out at 36100 nM.

`COc1ccc(NC(=O)c2ccc(-c3nsc(-c4csc(-c5ccncc5)n4)n3)cc2)cc1`: the 50% inhibitory concentration (IC50) was 110 nM in the experiment on MCF7 [10]; 110 nM in the experiment on A549 [11]; 110 nM in the experiment on COLO 205 [12]; 110 nM in the experiment with A2780 [13]; 340 nM with MCF7 [14]; 110 nM in the experiment with A549 [15]. The results for the concentration for half-maximal inhibition (IC50) in the experiment with COLO 205 [16] and in the experiment on A2780 [17] were 120 nM and 140 nM, respectively.

In the case of `Cc1ccc(NC(=O)c2ccc(-c3nsc(-c4csc(-c5ccncc5)n4)n3)cc2)cc1`, the IC50 was 110 nM with MCF7 [10]; 110 nM with A549 [11]; 110 nM in the experiment with COLO 205 [12]; 110 nM in the experiment on A2780 [13]; 340 nM in the experiment on MCF7 [14]; 110 nM in the experiment with A549 [15]. In addition, the concentration for half-maximal inhibition (IC50) with COLO 205 [16] worked out at 120 nM; in the experiment on A2780 [17], 140 nM.

In experiment [9], `O=C(CCl)Nc1nnc(NC(=O)c2cccs2)s1` displayed an IC50 of 36100 nM.

Take `O=C(CSc1nnc(Nc2ccc(Cl)cc2)s1)N1N=C(c2ccccc2)CC1c1ccc([N+](=O)[O-])cc1` (stereo not given): the IC50 came to 8490 nM in the experiment with A549 [4], 67200 nM in the experiment with MCF7 [5], 11900 nM in the experiment on A549 [6] and 10000 nM in the experiment on A549 [8].

As to `C=CCNc1nnc(SCC(=O)N2N=C(c3ccccc3)CC2c2ccc([N+](=O)[O-])cc2)s1` (stereo not given), the half-maximal inhibitory concentration (IC50) with A549 [4] was found to be 5180 nM; in the experiment with MCF7 [5], 35700 nM; in the experiment on A549 [8] it was 10000 nM.

Turning to `Cc1nc[nH]c1-c1nnc(Nc2ccccc2F)s1`, in the experiment on Trypanosoma brucei, the Activity is on record as 64.81%.
